According to US20070105808A1, “Inhibition of histone deacetylase” (MethylGene, Inc., priority 1999, published 2007):
Where a SMILES comes first, the peptide text is derived from it. [ ]: non-standard residue; d: D form. Aoe = N[C@@H](CCCCCC(=O)[C@@H]1CO1)C(=O)O; d = 2'-deoxy (DNA); m = 2'-O-methyl

Assays:
[1] = system: cell cycle progression in cells; conditions: literature reports; cited from earlier work
histone deacetylase = conditions: Yoshida et al.; cited from earlier work
HDAC-1 protein = assay: Western blotting analysis of HDAC-1 protein expression in transfected T24 cells; assay type: cell-based, human; conditions: FIG. 4; second generation oligonucleotides, T24 cells transfected twice with 50 nM, lysates 24 h after second transfection
Experimental: (§1) To do this, T24 cells were transfected with oligonucleotide using lipofectin as described above. Twenty-four hours later, the cells were lysed according to standard procedures. The whole cell extracts (50 μg) were resolved on 7-15% gradient SDS/PAGE, transferred to PVDF membrane (Amersham, Arlington Heights, Ill.), and subjected to Western blotting analysis with rabbit polyclonal HDAC1- and HDAC-2 specific antibodies (1:500, Santa Cruz Biotech., Santa Cruz, Calif.) were used. Detection was accomplished with a secondary anti-rabbit IgG-HR peroxidase antibody and an enhanced chemiluminescence detection kit (Amersham) accordingly to manufacturer's instructions.
T24 cells were transfected twice as described above with 50 nM oligonucleotide. Cell lysates were prepared twenty-four hours following the second transfection, resolved on 7-15% gradient SDS-PAGE, and transferred to PVDF membrane. The PVDF membrane blot was first blotted with anti-HDAC-1 antibody. Following detection with horseradish peroxidase-labelled secondary antibody and enhanced chemiluminescence, the blot was stripped, and re-probed with anti-HDAC-2 antibody. Following detection, the blot was stripped for a second time and re-probed with an actin-specific antibody to verify equal protein loading in the lanes.

HDAC-2 protein = assay: Western blotting analysis of HDAC-2 protein expression in transfected T24 cells; assay type: cell-based, human; conditions: FIG. 3; 50 nM second generation oligonucleotide, T24 cells transfected twice, 48 hours after the first transfection
Experimental: as §1
Twenty-four hours later, the cells were transfected a second time with the same amount of the same oligonucleotide. Twenty-four hours after this (i.e., 48 hours after the first transfection), cellular proteins were prepared, resolved on 7-15% gradient SDS-PAGE, and subjected to Western blotting analysis as described in Example 1 with rabbit polyclonal HDAC2 specific antibody (1:500, Santa Cruz Biotech). Following blotting with the secondary anti-rabbit IgG-HR peroxidase antibody and visualization with the enhanced chemiluminescence detection kit (Amersham), the blot was stripped and re-probed with an antibody specific to actin to verify equal loading of all wells (data not shown). […]

For `O=C1N[C@@H](Cc2ccccc2)C(=O)N2CCC[C@@H]2C(=O)N[C@@H](CCCCCC(=O)[C@@H]2CO2)C(=O)N[C@H]1Cc1ccccc1` [trapoxin] (cyclo(FF[dP][Aoe])), the cell cycle progression [1] is listed as “inhibit cell cycle progression in cells”.

For `C/C=C1\NC(=O)[C@H]2CSSCC/C=C/[C@H](CC(=O)N[C@H](C(C)C)C(=O)N2)OC(=O)[C@H](C(C)C)NC1=O` [FR901228], the cell cycle progression [1] is listed as “inhibit cell cycle progression in cells”.

For `O=C(CCCCCCC(=O)Nc1ccccc1)NO` [suberoylanilide hydroxamic acid], the cell cycle progression [1] is given as “inhibit cell cycle progression in cells”.

In the case of `CC(/C=C/C(=O)NO)=C\[C@@H](C)C(=O)c1ccc(N(C)C)cc1` [Trichostatin A], the cell cycle progression [1] is listed as “arrest cell cycle progression in cells in the G1 and G2 phases” and the “inhibition of histone deacetylase activity” value (histone deacetylase) is listed as “inhibit histone deacetylase activity”.

For `CC(/C=C/C(=O)NO[C@@H]1O[C@H](CO)[C@@H](O)[C@H](O)[C@H]1O)=C\[C@@H](C)C(=O)c1ccc(N(C)C)cc1` [trichostatin C], the cell cycle progression [1] is listed as “inhibit cell cycle progression in cells”.

For depudecin, the cell cycle progression [1] is listed as “inhibit cell cycle progression in cells”.

In the case of “5′-CAAUCGTCAGAGACTCCGAA-3′ (antisense CAAUCGTCAGAGACTCCGAA; sugars from the 5' end m4 d12 m4, backbone and methylation of C not given here) [MG2609, mismatch control oligonucleotide of HDAC-1 (MG2608)]”, the “inhibition of HDAC-1 protein expression” value (HDAC-1 protein) was “failed to inhibit”.

With “5′-CUCCTTGACTGTACGCCAUG-3′ [MG2636]” the “inhibition of HDAC-2 protein expression” value (HDAC-2 protein) was “able to inhibit HDAC-2 protein expression”.
